Results published in ChEMBL document CHEMBL5518180, “Design, synthesis, and biological evaluation of harmine derivatives as topoisomerase I inhibitors for cancer treatment” (Eur J Med Chem, 2024).
pIC50: −log10 of the molar value.

Legend:
[1] = system: A549; experiment: Antiproliferative activity against human A549 cells assessed as inhibition of cell growth incubated for 48 hrs by MTT assay; type: functional, cell-based; conditions: A549, 48 h
[2] = system: PC-3; experiment: Antiproliferative activity against human PC-3 cells assessed as inhibition of cell growth incubated for 48 hrs by MTT assay; type: functional, cell-based; conditions: PC-3, 48 h
[3] = system: HepG2; experiment: Antiproliferative activity against human HepG2 cells assessed as inhibition of cell growth incubated for 48 hrs by MTT assay; type: functional, cell-based; conditions: HepG2, 48 h
[4] = Cytotoxicity against human L02 cells assessed as inhibition of cell growth incubated for 48 hrs by MTT assay; type: toxicity, cell-based
[5] = system: HT-29; experiment: Antiproliferative activity against human HT-29 cells assessed as inhibition of cell growth incubated for 48 hrs by MTT assay; type: functional, cell-based; conditions: HT-29, 48 h
[6] = system: MCF7; experiment: Antiproliferative activity against human MCF7 cells assessed as inhibition of cell growth incubated for 48 hrs by MTT assay; type: functional, cell-based; conditions: MCF7, 48 h
[7] = system: MDA-MB-231; experiment: Antiproliferative activity against human MDA-MB-231 cells assessed as inhibition of cell growth incubated for 48 hrs by MTT assay; type: functional, cell-based; conditions: MDA-MB-231, 48 h

SMILES	pIC50 [1]	pIC50 [2]	pIC50 [3]	IC50 at 48 h [4] [µM]	pIC50 [5]	pIC50 [6]	pIC50 [7]
COc1ccc(/C=C/C(=O)c2nccc3c2[nH]c2ccccc23)c(OC)c1OC	< 4.70	< 5.00	4.94	> 20	< 4.70	< 4.70	< 4.70
COc1ccc2[nH]c3c(C(=O)/C=C/c4ccc(OC)c(OC)c4OC)nccc3c2c1	5.15	< 5.00	< 4.70	> 20	5.22	5.21	< 4.70
O=C(/C=C/c1cc(Cl)ccc1Cl)c1nccc2c1[nH]c1ccccc12	5.17	5.85	5.47	9.91	5.50	6.23	5.56
O=C(/C=C/c1cccc(I)c1)c1nccc2c1[nH]c1ccccc12	< 4.70	< 5.00	< 4.70	> 20	< 4.70	5.80	5.29
COc1ccc2[nH]c3c(C(=O)/C=C/C=C/c4ccccc4)nccc3c2c1	< 4.70	< 5.00	4.72	> 20	< 4.70	4.76	< 4.70
COc1ccc2[nH]c3c(C(=O)/C=C/c4cccc(Br)c4)nccc3c2c1	< 4.70	< 5.00	< 4.70	> 20	6.31	< 4.70	< 4.70
CCc1ccc(/C=C/C(=O)c2nccc3c2[nH]c2ccccc23)cc1	< 4.70	< 5.00	< 4.70	> 20	< 4.70	< 4.70	< 4.70
COc1ccc2[nH]c3c(C(=O)/C=C/c4ccc(Cl)c([N+](=O)[O-])c4)nccc3c2c1	5.24	< 5.00	5.11	> 20	< 4.70	< 4.70	5.52
O=C(/C=C/c1ccc2c(c1)OCCO2)c1nccc2c1[nH]c1ccccc12	< 4.70	< 5.00	4.88	> 20	< 4.70	< 4.70	4.82
O=C(/C=C/c1ccccc1Cl)c1nccc2c1[nH]c1ccccc12	5.27	5.62	5.55	11.4	4.90	5.47	5.46
COc1ccc(/C=C/C(=O)c2nccc3c2[nH]c2ccccc23)cc1	< 4.70	< 5.00	< 4.70	> 20	4.72	4.76	< 4.70
COc1cc(Br)c(/C=C/C(=O)c2nccc3c2[nH]c2ccccc23)cc1OC	5.01	< 5.00	5.02	> 20	5.43	5.66	5.15
O=C(/C=C/c1ccc([N+](=O)[O-])cc1)c1nccc2c1[nH]c1ccccc12	< 4.70	< 5.00	< 4.70	> 20	5.40	5.23	6.21
COc1cc(/C=C/C(=O)c2nccc3c2[nH]c2ccccc23)ccc1F	5.51	5.99	5.24	> 20	4.96	5.62	5.49
COc1ccc2[nH]c3c(C(=O)/C=C/c4cccc(I)c4)nccc3c2c1	< 4.70	< 5.00	< 4.70	> 20	5.63	5.80	5.06
COc1cccc(OC)c1/C=C/C(=O)c1nccc2c1[nH]c1ccccc12	< 4.70	< 5.00	< 4.70	> 20	< 4.70	4.98	< 4.70
COc1ccc2[nH]c3c(C(=O)/C=C/c4cc(OC)c(OC)cc4Br)nccc3c2c1	5.35	< 5.00	< 4.70	> 20	4.95	5.09	< 4.70
O=C(/C=C/c1cc(F)c(F)c(F)c1)c1nccc2c1[nH]c1ccccc12	5.24	5.92	6.02	17.8	6.05	6.06	5.69
COc1ccc2[nH]c3c(C(=O)/C=C/c4cc(F)c(F)c(F)c4)nccc3c2c1	< 4.70	< 5.00	4.80	> 20	5.57	5.37	5.19
COc1ccc2[nH]c3c(C(=O)/C=C/c4ccccc4Cl)nccc3c2c1	< 4.70	< 5.00	< 4.70	> 20	6.28	< 4.70	5.84
COc1ccc2[nH]c3c(C(=O)/C=C/c4ccc(F)c(OC)c4)nccc3c2c1	5.19	6.00	5.20	> 20	5.61	6.11	5.85
O=C(/C=C/c1cccc(Br)c1)c1nccc2c1[nH]c1ccccc12	4.93	5.57	5.23	14.3	5.14	5.30	5.19
O=C(/C=C/c1ccc(Br)cc1)c1nccc2c1[nH]c1ccccc12	4.91	< 5.00	< 4.70	> 20	5.01	5.45	5.04
COc1ccc2[nH]c3c(C(=O)/C=C/c4ccc(Cl)c(C)c4)nccc3c2c1	5.13	< 5.00	5.56	> 20	5.72	5.36	5.19
COc1ccc2[nH]c3c(C(=O)/C=C/c4cc(Cl)ccc4Cl)nccc3c2c1	< 4.70	< 5.00	< 4.70	> 20	6.17	5.10	5.09
COc1ccc2[nH]c3c(C(=O)/C=C/c4ccc([N+](=O)[O-])cc4)nccc3c2c1	< 4.70	< 5.00	< 4.70	> 20	< 4.70	4.81	< 4.70
COc1ccc2[nH]c3c(C(=O)/C=C/c4c(C)cccc4C)nccc3c2c1	< 4.70	< 5.00	< 4.70	> 20	< 4.70	4.99	< 4.70
COc1ccc2[nH]c3c(C(=O)/C=C/c4ccc(Br)cc4)nccc3c2c1	< 4.70	5.38	4.80	> 20	5.11	5.07	5.25
